Test results: publication doi:10.1101/2021.04.29.441652v1 (biorxiv, 2021)

molecular target: human σ2 receptor (TMEM97) (Homo sapiens, UniProt Q5BJF2); test: biochemical; type: Expi293 membranes; conditions: read-out: % of control remaining
Sequence (Q5BJF2 whole entry): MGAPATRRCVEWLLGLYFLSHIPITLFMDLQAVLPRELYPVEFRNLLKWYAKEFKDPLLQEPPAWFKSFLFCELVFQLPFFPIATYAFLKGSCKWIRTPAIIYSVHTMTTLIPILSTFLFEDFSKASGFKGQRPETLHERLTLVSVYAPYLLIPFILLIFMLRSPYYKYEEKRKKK

Row | Compound | remaining activity at 1 µM [%]
1 | CN1CCC[C@@H]1C(=O)NC[C@H]1CN(CCCC(C)(C)C)CCCO1 [ZINC001149399826] | 96.4
2 | C[C@H](Cc1ccccc1Br)NCC1(O)CCC1 [ZINC000577603040] | 61.7
3 | Cc1nc2n(n1)CCN(C(=O)C(=O)N[C@@H]1CCO[C@@H](CC(C)C)C1)C2 [ZINC000361132106] | 76.4
4 | O=C(Nc1ccc2c(=O)[nH]ccc2c1)C(=O)N1C[C@H](CO)[C@@H](O)C1 [ZINC001350153389] | 93.3
5 | Cc1noc(-c2cccnc2NC2CCC(N3CCCCC3)CC2)n1 (stereo not shown) [ZINC000080247921] | 24.7
6 | C[C@H]1CN/C(=N/CCCc2c(Cl)cccc2Cl)N1 [ZINC000849049798] | 8.7
7 | Cc1ccc(NC(=O)CN2CCC[C@@H](C3OCCO3)C2)cc1Cl [ZINC000263644082] | 83.4
8 | CS[C@H]1CCN([C@H](C)c2nc(-c3ccccc3C)no2)C1 [ZINC000296435291] | 106
9 | COc1ccc([C@H]2CCN(C[C@@H](O)c3ccc(F)cc3Cl)C2)cc1 [ZINC000775588849] | 39
10 | Cn1cc(CN[C@H]2C[C@H](NC(=O)c3cccc(C(N)=O)n3)C2)cn1 [ZINC001021109191] | 106
11 | O=C(NC[C@@H]1CN2CCC[C@@H]2CO1)C(=O)N[C@@H]1CC[C@H]2CCC[C@@H]2C1 [ZINC000804054066] | 90
12 | CCN(C[C@@H]1CCN(Cc2ccccc2)C1)C(=O)[C@H]1CC(=O)N(C2CCCC2)C1 [ZINC000246894550] | 72.6
13 | CC(=O)N[C@@H]1CCN(S(=O)(=O)c2cnn([C@@H]3CCOC3)c2)C1 [ZINC001413380655] | 118
14 | CCN1CC[C@H](N2CCC[C@@H](NC(=O)c3ccc(O)nn3)CC2)C1=O [ZINC001052175095] | 104
15 | C[C@H](CCN1C(=O)c2ccccc2C1=O)NC[C@@H](O)c1c(F)cccc1F [ZINC000769519341] | 91.7
16 | O=C(NCC1CN(CCC2CCCC2)C1)C1(c2cccnc2)CC1 [ZINC001391502525] | 43.6
17 | COc1cccnc1CN[C@H](Cc1ccc(C)cc1)C1CC1 [ZINC000453351921] | 69.2
18 | CC(C)C1CN(C[C@@H](O)COC(c2ccccc2)c2ccccc2)C1 [ZINC000684607185] | 17.3
19 | Cc1ccc(C(=O)NC[C@H]2CN(C(=O)[C@@H]3CCN(C)C3)CCCO2)o1 [ZINC001019525589] | 85
20 | O=C1Nc2ccccc2C12CCC(NCC1(O)CCOCC1)CC2 (stereo not shown) [ZINC000178638284] | 111
21 | Brc1ccccc1CNc1nccn1Cc1ccccc1 [ZINC000508455082] | 69.3
22 | C[C@@H](Cn1cc(Br)cn1)NCCOc1ccc2c(c1)OCO2 [ZINC000133991118] | 65.4
23 | Cc1cccnc1[C@H](NC(=O)N1CCN(C2CCC2)CC1)C(C)C [ZINC000265281429] | 97.5
24 | CN1CC[C@](O)(CN[C@@H](c2sccc2Br)C2CCCCC2)C1 [ZINC000556573026] | 16.7
25 | O=C1[C@H](N2C[C@@H]3CCC[C@H]3C2)CCN1c1ccccc1Cl [ZINC000247015101] | 73
26 | C[C@@H]1CCC[C@H](CCN(C)CCNC(=O)c2c3c(nn2C)CCC3)C1 [ZINC001399642198] | 21.2
27 | C[C@@H](CNC(=O)C(=O)NCc1nnn(C)n1)N(C)Cc1ccccc1 [ZINC001328800283] | 86.4

Row | Compound | remaining activity at 1 µM [%]
28 | CS[C@@H]1CCN(C[C@@H](O)c2ccccc2C(F)(F)F)C1 [ZINC000830877226] | 78.8
29 | O=C1[C@@H](N2CC[C@@H](C3OCCO3)C2)CCN1c1cccc(Br)c1 [ZINC000932000298] | 75.9
30 | Fc1cccc(Cl)c1CNC1CCC2(CCCO2)CC1 (stereo not shown) [ZINC000584028046] | 18.4
31 | OC[C@]1(CNC2=NCCCN2)CCc2ccccc21 [ZINC000656508398] | 55.9
32 | Cc1cnc(CN2CC[C@@H](CCNC(=O)c3cncs3)C2)s1 [ZINC001437918206] | 103
33 | CN1CCN(CCNC(=O)C(=O)NC[C@H]2CCC=CO2)CC1(C)C [ZINC000805503179] | 105
34 | CC[C@@H](C)N1CCN(c2nc(N)nc(C(F)(F)C(F)(F)F)n2)CC1 [ZINC000894101819] | 35
35 | CN(C[C@H](O)CN[C@@H]1C[C@H]2CCCCN2C1=O)C(=O)OC(C)(C)C [ZINC000496403719] | 92.4
36 | CNC(=O)NCC(=O)N1CC(O)(CNC(=O)c2ccc(F)s2)C1 [ZINC001043696212] | 84.5
37 | Cc1ccccc1Cc1nnc(CN2C[C@@H](N3CCCC3)C[C@H]2C)o1 [ZINC000367601434] | 90.8
38 | C[C@@H]1CCCC[C@H]1OCCNC(=O)NC[C@H]1CCCCN(C)C1 [ZINC000623468108] | 84.9
39 | C[C@@H]1CCCN1CCNC(=O)N1CCC[C@@H]1[C@@H]1CCCC[C@@]1(C)O [ZINC000897504395] | 90.9
40 | COCCOc1ccc(NC(=O)C(=O)N2C[C@H]3CN(C)C[C@H]3C2)cn1 [ZINC000279187431] | 105
41 | CN1CCC[C@@H]2CN(Cn3ccc(-c4ccc(Br)cc4)n3)CC[C@H]21 [ZINC000247147334] | 104
42 | Cc1cc(F)c(CN[C@@H]2CCN(c3ccccc3C(N)=O)C2)c(Cl)c1 [ZINC000656499190] | 71.5
43 | NC(=O)[C@H](Cc1ccc(Cl)cc1)NCc1cc2ccccc2s1 [ZINC000517634594] | 98.7
44 | O=C(c1cncc(N2CCOCC2)c1)N1CCN2C(=O)NC[C@@H]2C1 [ZINC000408001865] | 110
45 | CC(C)N1CC[C@H](CCNC(=O)c2cc(-c3cccnc3)on2)C1 [ZINC001418905447] | 130
46 | C[C@@H](C(=O)NCc1ccccc1Cl)N1CC[C@H](n2ncc3ccccc32)C1 [ZINC000542825037] | 107
47 | O=C([C@H](O)c1cccc([N+](=O)[O-])c1)N1CC[C@H](N2CCCC2)C1 [ZINC000825615260] | 104
48 | Cc1ccccc1-n1cc(CN2CCC[C@@H]([C@H]3CCCCO3)C2)nn1 [ZINC000668631550] | 58.4
49 | C[C@@H](C(N)=O)N1CCC[C@H](CNC(=O)c2nn(C)c3c2CCCC3)C1 [ZINC001023604137] | 89.3
50 | C[C@H](C(=O)NCc1cc(Br)cs1)N1CCCCCC1 [ZINC000074484650] | 86.9
51 | O[C@H](CN1CC[C@@H](Cc2nccs2)C1)c1c(F)cccc1F [ZINC000934332177] | 34
52 | Cc1cccc2c1CCN2C(=O)[C@@H]1CC[C@H]2CCCC[C@@H]2N1 [ZINC001579778746] | 19.6
53 | O=C(CN1CCC[C@@H]1[C@@H]1CCC[C@H]1O)N1CCOC[C@H]1C1CC1 [ZINC000649929688] | 96.5
54 | C[C@@H]1CCC[C@@H](NC(=O)CN2CCN(CC[C@@H]3CCOC3)CC2)C1 [ZINC000438095302] | 38.1

Row | Compound | remaining activity at 1 µM [%]
55 | COc1cc(NC(=O)CC2(N)CC2)cc(OC)c1Br [ZINC000662800454] | 106
56 | N/C(=N\Cc1cccc2c1OCCCO2)NC1CCCC1 [ZINC000269280100] | 11.1
57 | CC(C)CN1CCC(NC(=O)NNC(=O)C(=O)NC2CC2)CC1 [ZINC000045463977] | 107
58 | CC[C@H]1CN(C(=O)C(=O)NCCCN2CCNCC2)CCS1 [ZINC000419873354] | 95.7
59 | Cc1cc(N(C)C)ccc1CNC(=O)C(=O)NC[C@@H]1COCCN1 [ZINC000861751799] | 106
60 | N[C@H](Cc1ccccn1)C(=O)NCc1ccccc1C(F)(F)F [ZINC001580410121] | 122
61 | CN(CCCN(C)C(=O)C(=O)N(CCO)C1CC1)Cc1ccco1 [ZINC000297448741] | 105
62 | O=C1CN(CC(=O)N[C@H](CNc2cc(F)ncn2)C2CC2)CCN1 [ZINC001109958062] | 90.2
63 | C[C@H]1[C@H](N2CCCC2)CCN1Cc1cn2cc(Br)ccc2n1 [ZINC000672564445] | 69.7
64 | O[C@@H](CN[C@@H](c1ccc(Br)cc1Cl)C1CC1)CN1CCCC1 [ZINC000446751851] | 20.8
65 | C[C@H]1CCC[C@H](NC(=O)C(=O)N2CCC(N3CCN(C)CC3)CC2)CC1 [ZINC000875242850] | 76.2
66 | CNC(=O)CC[C@H]1CCCCN1Cc1cc(-c2ccccc2)on1 [ZINC000286502332] | 139
67 | COCC1(O)CCN(C[C@@H](O)Cn2cnc3cc(C)c(C)cc32)CC1 [ZINC000270395954] | 121
68 | Cc1cc(C)c(/C=C\CN2CCC[C@@H](O)C2)cc1C [ZINC001474404955] | 62.3
69 | CN1CC[C@H](C(=O)NC2CN(C(=O)Cc3ccc(F)cn3)C2)CC1=O [ZINC000995125582] | 102
70 | Cn1cc(C(=O)N2CCO[C@@H](CNC(=O)C=C3CCC3)C2)ncc1=O [ZINC001065434920] | 57.8
71 | C[C@@H]1CCN(CC(=O)N[C@H]2C[C@H](NC(=O)c3cnnc(O)c3)C2)C1 [ZINC000973375109] | 111
72 | COC(=O)[C@@H](C)CS(=O)(=O)N[C@@H]1CCN(CC2CCCC2)C1 [ZINC000152090354] | 44.7
73 | C[C@H](Nc1nc(N)nc(N)n1)c1ccccc1C(F)(F)F [ZINC000858362097] | 142
74 | CCn1ncc2c1CCC[C@@H]2N[C@@H](C)Cc1ccccn1 [ZINC000925887162] | 27.4
75 | CC[C@H](c1ccccc1)N1CCC(C#N)(c2ccccn2)CC1 [ZINC000376738332] | 84
76 | CN(Cc1cc(F)cc(F)c1)C(=O)C(=O)N1CC[C@H](N2CC=CC2)C1 [ZINC000410783840] | 103
77 | CCCCNC(=O)[C@H](C)N1CC[C@](C)(CNC(=O)OC(C)(C)C)C1 [ZINC000495656270] | 45.1
78 | COCCN1CCC(N[C@H]2COc3cc(F)c(Br)cc32)CC1 [ZINC000504552433] | 49.2
79 | CO[C@@H]1CN(C(=O)NCc2ccnc(N3CCN(C)CC3)c2)CCO1 [ZINC000891830660] | 116
